# Assay results published in patent publication US6512000B1, “Aminocarbonyl-substituted benzimidazoles having tryptase-inhibitory activity” (Boehringer Ingelheim Pharma KG, priority 1999, dated 2003).
# Where a name gives a salt, the structure may show the parent alone.
# Molecular target: T1, rh beta tryptase (Homo sapiens, UniProt P20231)
# T1 construct: purchased Promega
# Assay: Tryptase inhibition test (cleavage of N-p-tosyl-Gly-Pro-Lys-para-nitroaniline, p-nitroaniline measured at 405 nm)
# Assay type: biochemical
# Details: concentration at which 50% of the tryptase enzyme activity is inhibited; substrate 0.6 mM, pH 7.4, 37° C.
# In short: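 Recombinant human beta tryptase (0.91 U/ml) in 100 mM Tris HCl pH 7.4 with 5 mM calcium and 100 mg/ml heparin; compounds pre-incubated 5 min, then 0.6 mM tosyl-Gly-Pro-Lys-pNA added, 5 min at 37 °C. p-Nitroaniline read at 405 nm; % inhibition at 10 μM, IC50 determined when inhibition exceeded 70%.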
# T1 sequence (P20231 31-275): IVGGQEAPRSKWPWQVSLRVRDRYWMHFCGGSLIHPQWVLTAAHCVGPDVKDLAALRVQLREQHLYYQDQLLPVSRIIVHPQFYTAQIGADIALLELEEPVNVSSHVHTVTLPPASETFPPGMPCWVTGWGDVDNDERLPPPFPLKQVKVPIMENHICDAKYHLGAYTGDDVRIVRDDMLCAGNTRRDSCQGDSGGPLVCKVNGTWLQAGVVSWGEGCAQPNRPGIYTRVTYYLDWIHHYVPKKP
row,IC50 [nM],Compound
1,312,"CN(C(=O)c1ccc2c(c1)nc(CCc1ccc(C(=N)N)cc1)n2C)c1cccnc1 [Example 18, 2-[2-(4-Amidinophenyl)-ethyl]-1-methyl-benzimidazol-5-yl-carboxylic Acid-N-methyl-N-(3-pyridyl)-amide-hydrochloride]"
2,251,"CCCCN(CCN)C(=O)c1ccc2c(c1)nc(CCc1ccc(C(=N)N)cc1)n2CCCOCC [Example 278, 2-[2-(4-amidinophenyl)ethyl]-1-(3-ethoxypropyl)-benzimidazol-5-yl-carboxylic acid-N-(2-aminoethyl)-N n-butyl-amide]"
3,67,"Cn1c(CCc2ccc(C(=N)N)cc2)nc2cc(C(=O)N(CCNCc3ccccc3)C3CCCCC3)ccc21 [Example 36, 2-[2-(4-Amidinophenyl)-ethyl]-1-methyl-benzimidazol-5-yl-carboxylic Acid-[N-(2-(N′-benzylamino)-ethyl)-N-cyclohexyl-amide]-dihydrochloride]"
4,571,"CN(Cc1ccc(N(C)C)cc1)C(=O)c1ccc2c(c1)nc(CCc1ccc(C(=N)N)cc1)n2C [Example 6, 2-[2-(4-Amidinophenyl)-ethyl]-1-methyl-benzimidazol-5-yl-carboxylic Acid-N-(4-dimethylaminobenzyl)-N-methyl-amide-hydrochloride]"
5,169,"CCOCCCn1c(CCc2ccc(C(=N)N)cc2)nc2cc(C(=O)N(CCN)CCCc3ccccc3)ccc21 [Example 358, 2-[2-(4-amidinophenyl)ethyl]-1-(3-ethoxypropyl)-benzimidazol-5-yl-carboxylic acid-N-(2-aminoethyl)-N-(3-phenylpropyl)-amide]"
6,422,"CCOCCCn1c(CCc2ccc(C(=N)N)cc2)nc2cc(C(=O)N(Cc3ccc(CN)cc3)Cc3cccc(OC)c3)ccc21 [Example 70, 2-[2-(4-amidinophenyl)ethyl]-1-(3-ethoxy-propyl)-benzimidazol-5-yl-carboxylic acid-N-[4-(amino-methyl)-benzyl]-N-(3-methoxybenzyl)-amide]"
7,369,"CCOCCCn1c(CCc2ccc(C(=N)N)cc2)nc2cc(C(=O)N(Cc3ccccc3)Cc3ccc(CN)cc3)ccc21 [Example 102, 2-[2-(4-amidinophenyl)ethyl]-1-(3-ethoxypropyl)-benzimidazol-5-yl-carboxylic acid-N-[4-(amino-methyl)-benzyl]-N-benzyl-amide]"

# Same assay, conditions: inhibition of rh beta tryptase at 10 μM test substance; substrate N-p-tosyl-Gly-Pro-Lys-para-nitroaniline 0.6 mM, pH 7.4, 37° C., 5 minutes
inhibition at 10 µM [%],% Inhibition (10 μM) [%],Compound
52,–,"N=C(N)c1ccc(CCc2nc3cc(C(=O)N(CCCc4ccccc4)Cc4ccc(CN)cc4)ccc3n2CCC2CCCCC2)cc1 [Example 169, 2-[2-(4-amidinophenyl)ethyl]-1-(2-cyclohexylethyl)-benzimidazol-5-yl-carboxylic acid-N-[4-(amino-methyl)-benzyl]-N-(3-phenylpropyl)-amide]"
–,52,2-[2-(4-amidinophenyl)ethyl]-1-(2-cyclohexylethyl)-benzimidazol-5-yl-carboxylic acid-N-[4-(amino-methyl)-benzyl]-N-(3-pyridyl)-amide [Example 137]
83,–,"CCCCN(CCN)C(=O)c1ccc2c(c1)nc(CCc1ccc(C(=N)N)cc1)n2CCCOCC [Example 278, 2-[2-(4-amidinophenyl)ethyl]-1-(3-ethoxypropyl)-benzimidazol-5-yl-carboxylic acid-N-(2-aminoethyl)-N n-butyl-amide]"
56,–,"CCCCN(Cc1ccc(CN)cc1)C(=O)c1ccc2c(c1)nc(CCc1ccc(C(=N)N)cc1)n2CCCN1CCOCC1 [Example 97, 2-[2-(4-amidinophenyl)ethyl]-1-[3-(morpholin-4-yl)-propyl]-benzimidazol-5-yl-carboxylic acid-N-[4-(amino-methyl)-benzyl]-N-n-butyl-amide]"
67,–,"CCCCN(Cc1ccc(CN)cc1)C(=O)c1ccc2c(c1)nc(CCc1ccc(C(=N)N)cc1)n2Cc1ccc2c(c1)OCO2 [Example 100, 2-[2-(4-amidinophenyl)ethyl]-1-(1,3-benzodioxol-5-yl-methyl)-benzimidazol-5-yl-carboxylic acid-N-[4-(amino-methyl)-benzyl]-N-n-butyl-amide]"
54,–,"CCCCN(CCCC)CCCn1c(CCc2ccc(C(=N)N)cc2)nc2cc(C(=O)N(Cc3ccc(CN)cc3)Cc3ccc4ccccc4c3)ccc21 [Example 231, 2-[2-(4-amidinophenyl)ethyl]-1-(3-di-n-butylaminopropyl)-benzimidazol-5-yl-carboxylic acid-N-[4-(amino-methyl)-benzyl]-N-(2-naphthylmethyl)-amide]"
60,–,"COc1cccc(CN(Cc2ccc(CN)cc2)C(=O)c2ccc3c(c2)nc(CCc2ccc(C(=N)N)cc2)n3CCc2ccccc2)c1 [Example 75, 2-[2-(4-amidinophenyl)ethyl]-1-(2-phenyl-ethyl)-benzimidazol-5-yl-carboxylic acid-N-[4-(amino-methyl)-benzyl]-N-(3-methoxybenzyl)-amide]"
52,–,"COC(=O)c1ccc(CN(Cc2ccc(CN)cc2)C(=O)c2ccc3c(c2)nc(CCc2ccc(C(=N)N)cc2)n3Cc2ccc(C)cc2)cc1 [Example 445, 2-[2-(4-amidinophenyl)ethyl]-1-(4-methylbenzyl)-benzimidazol-5-yl-carboxylic acid-N-[4-(amino-methyl)-benzyl]-N-[4-(methoxycarbonyl)-benzyl]-amide]"
77,–,"CCOCCCn1c(CCc2ccc(C(=N)N)cc2)nc2cc(C(=O)N(CCN)CCCc3ccccc3)ccc21 [Example 358, 2-[2-(4-amidinophenyl)ethyl]-1-(3-ethoxypropyl)-benzimidazol-5-yl-carboxylic acid-N-(2-aminoethyl)-N-(3-phenylpropyl)-amide]"
52,–,"Cc1ccc(Cn2c(CCc3ccc(C(=N)N)cc3)nc3cc(C(=O)N(Cc4ccc(CN)cc4)Cc4ccc5ccccc5c4)ccc32)cc1 [Example 237, 2-[2-(4-amidinophenyl)ethyl]-1-(4-methylbenzyl)-benzimidazol-5-yl-carboxylic acid-N-[4-(amino-methyl)-benzyl]-N-(2-naphthylmethyl)-amide]"
63,–,"CCOCCCn1c(CCc2ccc(C(=N)N)cc2)nc2cc(C(=O)N(Cc3ccc(CN)cc3)Cc3cccc(OC)c3)ccc21 [Example 70, 2-[2-(4-amidinophenyl)ethyl]-1-(3-ethoxy-propyl)-benzimidazol-5-yl-carboxylic acid-N-[4-(amino-methyl)-benzyl]-N-(3-methoxybenzyl)-amide]"
–,60,2-[2-(4-amidinophenyl)ethyl]-1-(2-phenylethyl)-benzimidazol-5-yl-carboxylic acid-N-[4-(amino-methyl)-benzyl]-N-(2-pyridyl)-amide [Example 123]
66,–,"N=C(N)c1ccc(CCc2nc3cc(C(=O)N(CCCc4ccccc4)Cc4ccc(CN)cc4)ccc3n2CCCNC(=O)Cc2ccccc2)cc1 [Example 168, 2-[2-(4-amidinophenyl)ethyl]-1-[3-(benzylcarbonylamino)-propyl]-benzimidazol-5-yl-carboxylic acid-N-[4-(amino-methyl)-benzyl]-N-(3-phenylpropyl)-amide]"
–,58,"CCCCN(CCCC)CCCn1c(CCc2ccc(C(=N)N)cc2)nc2cc(C(=O)N(CCN)Cc3ccc(Cl)cc3)ccc21 [Example 375, 2-[2-(4-amidinophenyl)ethyl]-1-(3-di-n-butylaminopropyl)-benzimidazol-5-yl-carboxylic acid-N-(2-aminoethyl)-N-(4-chlorbenzyl)-amide]"
–,63,2-[2-(4-amidinophenyl)ethyl]-1-[3-(morpholin-4-yl)-propyl]-benzimidazol-5-yl-carboxylic acid-N-[4-(amino-methyl)-benzyl]-N-(2-pyridyl)-amide [Example 129]
69,–,"N=C(N)c1ccc(CCc2nc3cc(C(=O)N(Cc4ccc(CN)cc4)Cc4ccc5ccccc5c4)ccc3n2CCCN2CCOCC2)cc1 [Example 241, 2-[2-(4-amidinophenyl)ethyl]-1-[3-(morpholin-4-yl)-propyl]-benzimidazol-5-yl-carboxylic acid-N-[4-(amino-methyl)-benzyl]-N-(2-naphthylmethyl)-amide]"

Compound,inhibition at 10 µM [%],% Inhibition (10 μM) [%]
2-[2-(4-amidinophenyl)ethyl]-1-(tetrahydrofuran-2-yl-methyl)-benzimidazol-5-yl-carboxylic acid-N-[4-(amino-methyl)-benzyl]-N-(3-pyridyl)-amide [Example 146],–,65
